{
  "source": "patent US5780431A",
  "about": "“Pharmaceutical formulations of corticotropin releasing factor having improved stability in liquid form” (Neurobiological Technologies, Inc., priority 1996, dated 1998)",
  "key": {"[1]": {"test": "Solubility of CRF in various buffer solutions", "format": "physicochemical", "details": "for solubility: read-out: CRF solubility (gross weight)", "procedure": "(§1) In an effort to develop liquid formulations of CRF useful for commercial pharmaceutical purposes, experiments designed to measure the solubility of CRF in a variety of different buffer solutions were carried out. Specifically, CRF was added in increasing amounts to a variety of different buffer solutions at various different concentrations and pH's, either in the presence or absence of other excipient additives and the solubility of the CRF product was determined. Table 1 summarizes the results of these experiments measuring the solubility of CRF in various phosphate, citrate and acetate buffers, either in the presence or absence of various excipients such as NaCl and mannitol. CRF solubility is expressed in gross weight of CRF in mg/ml of solution."}, "[2]": {"test": "Solubility of CRF in various non-volatile buffer solutions", "format": "physicochemical", "procedure": "as §1\nNext, because it is known that certain buffers may be volatilized when lyophilized, further experiments were conducted as described above to examine the solubility of CRF in various other non-volatile buffer solutions."}},
  "note": "Values joined by “and” are separate entries in the source; they are usually repeats but may differ in a detail not shown here. Equal values may be shown once. Read-outs that look alike come from different tables or passages of the source.",
  "data": [
    {"molecule": "CC[C@H](C)[C@H](NC(=O)[C@@H](NC(=O)[C@H](CCC(=O)O)NC(=O)[C@H](CCSC)NC(=O)[C@H](CC(C)C)NC(=O)[C@H](CCCCN)NC(=O)[C@H](CCCNC(=N)N)NC(=O)[C@H](CC(N)=O)NC(=O)[C@H](CO)NC(=O)[C@H](Cc1c[nH]cn1)NC(=O)[C@H](C)NC(=O)[C@H](CCC(N)=O)NC(=O)[C@H](CCC(N)=O)NC(=O)[C@H](C)NC(=O)[C@H](CC(C)C)NC(=O)[C@H](CCC(N)=O)NC(=O)[C@H](CCC(=O)O)NC(=O)[C@H](C)NC(=O)[C@H](CCCNC(=N)N)NC(=O)[C@H](C)NC(=O)[C@H](CCSC)NC(=O)[C@H](CCC(=O)O)NC(=O)[C@H](CC(C)C)NC(=O)[C@@H](NC(=O)[C@H](CCC(=O)O)NC(=O)[C@H](CCCNC(=N)N)NC(=O)[C@H](CC(C)C)NC(=O)[C@H](CC(C)C)NC(=O)[C@H](Cc1c[nH]cn1)NC(=O)[C@H](Cc1ccccc1)NC(=O)[C@@H](NC(=O)[C@H](CC(C)C)NC(=O)[C@H](CC(=O)O)NC(=O)[C@H](CC(C)C)NC(=O)[C@H](CO)NC(=O)[C@@H](NC(=O)[C@@H]1CCCN1C(=O)[C@@H]1CCCN1C(=O)[C@H](CCC(=O)O)NC(=O)[C@H](CCC(=O)O)NC(=O)[C@@H](N)CO)[C@@H](C)CC)[C@@H](C)O)C(C)C)[C@@H](C)CC)C(N)=O", "note": "[CRF]", "values": [
      {"measurement": "CRF solubility", "setting": "[1]; acetate buffer between pH 4 and 5 without added NaCl", "value": "very soluble"},
      {"measurement": "CRF solubility", "setting": "[1]; citrate buffer between pH 4 and 6", "value": "< 0.2", "unit": "mg/mL"},
      {"measurement": "solubility", "setting": "[1]; citrate buffer, pH 4, aqueous buffer, pH 4.0, 25 mM Citrate, 150 mM NaCl", "value": 0.02, "unit": "mg/mL"},
      {"measurement": "solubility", "setting": "[1]; citrate buffer, pH 4, aqueous buffer, pH 4.0, 25 mM Citrate", "value": 0.04, "unit": "mg/mL"},
      {"measurement": "solubility", "setting": "[1]; citrate buffer, pH 5.1, aqueous buffer, pH 5.1, 25 mM Citrate, 150 mM NaCl", "value": 0.01, "unit": "mg/mL"},
      {"measurement": "solubility", "setting": "[1]; citrate buffer, pH 5.1, aqueous buffer, pH 5.1, 25 mM Citrate", "value": 0.02, "unit": "mg/mL"},
      {"measurement": "CRF solubility (gross weight)", "setting": "[1]; pH 2.0, 10 mM PO4, 138 mM NaCl", "value": 50, "unit": "mg/mL"},
      {"measurement": "CRF solubility (gross weight)", "setting": "[1]; pH 4.08, 5 mM Citrate", "value": 0.2, "unit": "mg/mL"},
      {"measurement": "CRF solubility (gross weight)", "setting": "[1]; pH 4.08, 5 mM Citrate, 150 mM NaCl", "value": 0.16, "unit": "mg/mL"},
      {"measurement": "CRF solubility (gross weight)", "setting": "[1]; pH 4.2, 5 mM HOAC, 150 mM NaCl", "value": 1.17, "unit": "mg/mL"},
      {"measurement": "CRF solubility (gross weight)", "setting": "[1]; pH 4.2, 25 mM HOAc", "value": 29, "unit": "mg/mL"},
      {"measurement": "CRF solubility (gross weight)", "setting": "[1]; pH 4.26, 20 mM HOAc, 5% mannitol", "value": 14.5, "unit": "mg/mL"},
      {"measurement": "CRF solubility (gross weight)", "setting": "[1]; pH 4.34, 20 mM HOAc, 5% mannitol", "value": 11.2, "unit": "mg/mL"},
      {"measurement": "CRF solubility (gross weight)", "setting": "[1]; pH 4.4, 5 mM HOAC", "value": 33, "unit": "mg/mL"},
      {"measurement": "CRF solubility (gross weight)", "setting": "[1]; pH 4.45, 20 mM HOAc, 5% mannitol", "value": 13.8, "unit": "mg/mL"},
      {"measurement": "CRF solubility (gross weight)", "setting": "[1]; pH 4.49, 25 mM HOAc", "value": 5.34, "unit": "mg/mL"},
      {"measurement": "CRF solubility (gross weight)", "setting": "[1]; pH 4.49, 25 mM HOAc, 150 mM NaCl", "value": 0.28, "unit": "mg/mL"},
      {"measurement": "CRF solubility (gross weight)", "setting": "[1]; pH 4.52, 20 mM HOAc, 5% mannitol", "value": 12.5, "unit": "mg/mL"},
      {"measurement": "CRF solubility (gross weight)", "setting": "[1]; pH 4.6, 5 mM HOAC, 5% mannitol", "value": 2.2, "unit": "mg/mL"},
      {"measurement": "CRF solubility (gross weight)", "setting": "[1]; pH 4.7, 5 mM HOAC, 1% mannitol", "value": 1.96, "unit": "mg/mL"},
      {"measurement": "CRF solubility (gross weight)", "setting": "[1]; pH 4.72, 5 mM HOAC, 1% Tween", "value": 1.97, "unit": "mg/mL"},
      {"measurement": "CRF solubility (gross weight)", "setting": "[1]; pH 4.73, 20 mM HOAc, 5% mannitol", "value": 1.53, "unit": "mg/mL"},
      {"measurement": "CRF solubility (gross weight)", "setting": "[1]; pH 4.81, 5 mM HOAC", "value": 1.13, "unit": "mg/mL"},
      {"measurement": "CRF solubility (gross weight)", "setting": "[1]; pH 4.9, 25 mM HOAc", "value": 0.37, "unit": "mg/mL"},
      {"measurement": "CRF solubility (gross weight)", "setting": "[1]; pH 4.9, 25 mM HOAc, 150 mM NaCl", "value": 0.14, "unit": "mg/mL"},
      {"measurement": "CRF solubility (gross weight)", "setting": "[1]; pH 4.92, 5 mM Citrate", "value": 0.03, "unit": "mg/mL"},
      {"measurement": "CRF solubility (gross weight)", "setting": "[1]; pH 4.92, 5 mM Citrate, 150 mM NaCl", "value": 0.01, "unit": "mg/mL"},
      {"measurement": "CRF solubility (gross weight)", "setting": "[1]; pH 4.94, 20 mM HOAc, 5% mannitol", "value": 0.07, "unit": "mg/mL"},
      {"measurement": "CRF solubility (gross weight)", "setting": "[1]; pH 5.0, 5 mM HOAC", "value": 0.13, "unit": "mg/mL"},
      {"measurement": "CRF solubility (gross weight)", "setting": "[1]; pH 5.23, 20 mM HOAc, 5% mannitol", "value": 0.04, "unit": "mg/mL"},
      {"measurement": "CRF solubility (gross weight)", "setting": "[1]; pH 5.84, 5 mM Citrate", "value": 0.04, "unit": "mg/mL"},
      {"measurement": "CRF solubility (gross weight)", "setting": "[1]; pH 5.84, 5 mM Citrate, 150 mM NaCl", "value": 0.02, "unit": "mg/mL"},
      {"measurement": "CRF solubility (gross weight)", "setting": "[1]; pH 6.0, 5 mM HOAC", "value": 0.03, "unit": "mg/mL"},
      {"measurement": "CRF solubility (gross weight)", "setting": "[1]; pH 6.1, 25 mM Citrate", "value": 0.1, "unit": "mg/mL"},
      {"measurement": "CRF solubility (gross weight)", "setting": "[1]; pH 6.1, 25 mM Citrate, 150 mM NaCl", "value": 0.07, "unit": "mg/mL"},
      {"measurement": "CRF solubility (gross weight)", "setting": "[1]; pH 6.24, 25 mM HOAc", "value": 0.09, "unit": "mg/mL"},
      {"measurement": "CRF solubility (gross weight)", "setting": "[1]; pH 6.24, 25 mM HOAc, 150 mM NaCl", "value": 0.05, "unit": "mg/mL"},
      {"measurement": "CRF solubility (gross weight)", "setting": "[1]; pH 7.1, 10 mM PO4, 138 mM NaCl", "value": "0.48 mg/mL and 0.84 mg/mL"},
      {"measurement": "CRF solubility", "setting": "[1]; phosphate buffer between pH 2 and 3.6", "value": "very soluble"},
      {"measurement": "solubility", "setting": "[1]; phosphate buffer, pH 3.6, aqueous buffer, pH 3.6, 10 mM PO4, 138 mM NaCl", "value": 2.64, "unit": "mg/mL"},
      {"measurement": "solubility", "setting": "[1]; phosphate buffer, pH 4.2, aqueous buffer, pH 4.2, 10 mM PO4, 138 mM NaCl", "value": 0.29, "unit": "mg/mL"},
      {"measurement": "solubility", "setting": "[1]; phosphate buffer, pH 4.5, aqueous buffer, pH 4.5, 10 mM PO4, 138 mM NaCl", "value": 0.62, "unit": "mg/mL"},
      {"measurement": "solubility", "setting": "[1]; phosphate buffer, pH 5.6, aqueous buffer, pH 5.6, 10 mM PO4, 138 mM NaCl", "value": 0.31, "unit": "mg/mL"},
      {"measurement": "solubility", "setting": "[1]; phosphate buffer, pH 6.02, aqueous buffer, pH 6.02, 5 mM PO4", "value": 0.08, "unit": "mg/mL"},
      {"measurement": "solubility", "setting": "[1]; phosphate buffer, pH 6.7, aqueous buffer, pH 6.7, 10 mM PO4, 138 mM NaCl", "value": 0.52, "unit": "mg/mL"},
      {"measurement": "solubility", "setting": "[1]; phosphate buffer, pH 6.96, aqueous buffer, pH 6.96, 5 mM PO4", "value": 0.47, "unit": "mg/mL"},
      {"measurement": "solubility", "setting": "[1]; phosphate buffer, pH 7.32, aqueous buffer, pH 7.32, 20 mM PO4", "value": 1.46, "unit": "mg/mL"},
      {"measurement": "solubility", "setting": "[1]; phosphate buffer, pH 7.7, aqueous buffer, pH 7.7, 5 mM PO4", "value": 0.46, "unit": "mg/mL"},
      {"measurement": "CRF solubility", "setting": "[2]; 10 mM Phosphate, pH 7.3", "value": 3.0, "unit": "net mg/ml"},
      {"measurement": "CRF solubility", "setting": "[2]; 10 mM Phosphate, pH 7.3 + 25 mM ascorbate", "value": 1.2, "unit": "net mg/ml"},
      {"measurement": "CRF solubility", "setting": "[2]; 10 mM Phosphate, pH 7.3 + 0.25% arginine", "value": 2.0, "unit": "net mg/ml"},
      {"measurement": "CRF solubility", "setting": "[2]; 10 mM Phosphate, pH 7.3 + 0.25% glycine", "value": 2.2, "unit": "net mg/ml"},
      {"measurement": "CRF solubility", "setting": "[2]; 25 mM Ascorbic, pH 4.0", "value": 4.5, "unit": "net mg/ml"},
      {"measurement": "CRF solubility", "setting": "[2]; 25 mM Lactic, pH 4.0", "value": 1.9, "unit": "net mg/ml"},
      {"measurement": "CRF solubility", "setting": "[2]; 25 mM Succinic, pH 4.0", "value": 4.2, "unit": "net mg/ml"},
      {"measurement": "CRF solubility", "setting": "[2]; 25 mM Tartaric, pH 4.0", "value": 0.2, "unit": "net mg/ml"},
      {"measurement": "CRF solubility", "setting": "[2]; ascorbic, lactic, succinic and phosphate buffers tested", "value": "extremely soluble"}
    ]}
  ]
}
